Biological target: T1, human tyrosinase (Homo sapiens, UniProt P14679)
T1 sequence (P14679 19-529): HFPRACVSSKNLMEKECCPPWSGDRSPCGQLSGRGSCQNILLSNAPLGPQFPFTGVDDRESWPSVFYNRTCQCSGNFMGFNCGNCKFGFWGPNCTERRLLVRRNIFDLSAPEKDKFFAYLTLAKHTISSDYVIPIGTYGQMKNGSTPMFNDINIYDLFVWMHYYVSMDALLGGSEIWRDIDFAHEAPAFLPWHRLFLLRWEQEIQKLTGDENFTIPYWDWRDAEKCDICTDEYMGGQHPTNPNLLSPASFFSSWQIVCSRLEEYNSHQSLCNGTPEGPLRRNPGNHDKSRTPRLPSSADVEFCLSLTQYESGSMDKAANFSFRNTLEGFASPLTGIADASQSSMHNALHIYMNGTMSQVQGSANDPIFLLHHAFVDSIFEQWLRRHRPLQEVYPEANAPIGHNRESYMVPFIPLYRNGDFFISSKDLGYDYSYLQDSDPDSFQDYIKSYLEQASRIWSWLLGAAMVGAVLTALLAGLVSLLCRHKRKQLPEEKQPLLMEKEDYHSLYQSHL
Assay: Enzyme test: conversion of L-DOPA to L-dopaquinone by human tyrosinase (MBTH, absorption at 490 nm)
Format: biochemical
Details: tyrosinase activity
Procedure: Method Description of the Effectiveness Investigations:
In this literature-known method (Winder, A. J. and Harris, H., New assays for the tyrosine hydroxylase and dopa oxidase activities of tyrosinase. Eur. J. Biochem. (1991), 198, 317-26), the reaction product L-dopaquinone is reacted with MBTH (3-methyl-2-benzothiazoline hydrazone) to give a pink-colored substance, the increase of which is measured over time by absorption at 490 nm. […] It can be concluded from this that the substances according to the invention are extremely effective pigmentation-inhibiting substances.

For `CC(C)C(=O)Nc1nc(-c2ccc(O)cc2O)cs1` [N-(4-(2,4-dihydroxyphenyl)thiazol-2-yl)isobutyramide], the “Inhibition (% of the control)” value (concentration 0.4 μg/mL) was 38.2 % of the control.
With `C/C=C/C=C/C(=O)[O-].[K+]` [Potassium sorbate] the “Inhibition (% of the control)” value (concentration 200 μg/mL) was 42.0 % of the control.
In the case of `O=C([O-])c1ccccc1.[Na+]` [Sodium benzoate], the “Inhibition (% of the control)” value (concentration 200 μg/mL) is reported as 43.6 % of the control.

— patent US9610234B2, “Combinations of alkylamidothiazoles and preservatives” (Beiersdorf AG, priority 2013, dated 2017)
